Data as given in the supplement of paper PMC10307832.

Tests used:
Test in all cases: relative viability (nuclei count vs DMSO), 5 days (fraction); higher = more cells survive
[1] = compound: C1COCCN1C2=NC(=NC3=C2OC4=C3C=CC=N4)C5=CC(=CC=C5)NC(=O)C6=CN=C(C=C6)N
Method in brief: (§1)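 Acceptance criteria were a control CV below 25% and at least one doubling per plate. Lung cancer cell lines in 1536-well plates got five library-drug doses (not always all listed) √10 apart by pinning and were left 5 days with no medium change. Viability divides treated-well nuclei by vehicle-well nuclei and is the median across plates. Nuclei were counted by MetaXpress from 4× Hoechst images.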

Entinostat = compound: Nc1ccccc1NC(=O)c1ccc(CNC(=O)OCc2cccnc2)cc1 [Entinostat]
Method in brief: as §1

SGI-1776 = compound: CN1CCC(CNc2ccc3ncc(-c4cccc(OC(F)(F)F)c4)n3n2)CC1 [SGI-1776]
Method in brief: as §1

Cell Line	relative viability ([1]; 0.02 µM)	relative viability ([1]; 0.06325 µM)	relative viability ([1]; 0.2 µM)	relative viability ([1]; 0.6325 µM)	relative viability ([1]; 2 µM)	relative viability (Entinostat; 0.02 µM)	relative viability (Entinostat; 0.06325 µM)	relative viability (Entinostat; 0.2 µM)	relative viability (Entinostat; 0.6325 µM)	relative viability (Entinostat; 2 µM)	relative viability (SGI-1776; 0.08 µM)	relative viability (SGI-1776; 0.8 µM)	relative viability (SGI-1776; 2.53 µM)	relative viability (SGI-1776; 8 µM)
NCI-H1915	1.02	1.06	1	1.03	0.74	1.01	0.997	1.01	0.573	0.392	1.03	0.987	0.995	1
NCI-H647	0.862	1.02	0.905	0.867	0.546	1.05	1.04	0.897	0.462	0.165	0.988	1.09	0.839	0.544
NCI-H1650	0.865	1.01	0.8	0.896	0.618	0.999	0.929	0.964	0.635	0.334	0.945	0.879	0.84	0.442
NCI-H520	0.857	1.12	1.05	0.921	0.659	1	1.07	0.934	0.9	0.792	0.998	1.18	1	0.832
HCC-366	1.03	1.07	1.05	1.04	0.738	1.03	1.09	0.943	0.515	0.154	0.957	1.02	0.989	1.02
NCI-H2087	1.06	1.22	1.06	0.956	0.65	1.02	0.983	0.981	0.49	0.345	1.2	1.08	0.995	0.956
NCI-H522	0.945	0.927	0.888	0.988	0.955	1.03	0.967	1.19	1.11	0.646	1.04	1.01	0.875	0.827
PC-3 [JPC-3]	1.06	1.05	1.06	1.03	0.927	1.03	1.01	1.02	0.57	0.488	1.07	1.09	1.01	0.805
HOP-62	0.974	1.15	1.09	0.961	0.762	1.05	0.974	0.97	0.633	0.356	1.09	0.956	1.05	0.998
NCI-H2126	0.985	0.981	1.01	1.01	0.745	1.04	1.06	0.951	0.618	0.503	0.967	1.06	0.983	0.91
IA-LM	0.895	0.924	0.716	0.847	0.442	0.975	1.01	1.08	0.887	0.651	0.999	1.02	0.97	0.87
NCI-H1793	0.822	1.01	0.793	0.876	0.644	1.03	1.03	0.966	0.488	0.405	0.815	1.31	0.931	0.783
RERF-LC-KJ	1.01	1.05	0.973	0.928	0.743	0.952	0.986	0.922	0.631	0.297	1.03	1	0.957	0.843
H3255	0.944	0.956	0.945	0.951	0.8	0.98	0.915	0.764	0.535	0.369	1.07	1.04	1.04	0.829
EMC-BAC-2	1.05	0.972	0.912	0.92	0.885	1.18	0.965	0.91	0.598	0.398	1.05	1.06	0.973	0.87
SW 900	0.759	1.01	0.87	0.784	0.76	0.92	0.944	0.92	0.748	0.519	0.891	1.01	0.746	0.526

Cell Line	relative viability ([1]; 0.02 µM)	relative viability ([1]; 0.06325 µM)	relative viability ([1]; 0.2 µM)	relative viability ([1]; 0.6325 µM)	relative viability ([1]; 2 µM)	relative viability (Entinostat; 0.02 µM)	relative viability (Entinostat; 0.06325 µM)	relative viability (Entinostat; 0.2 µM)	relative viability (Entinostat; 0.6325 µM)	relative viability (Entinostat; 2 µM)	relative viability (SGI-1776; 0.08 µM)	relative viability (SGI-1776; 0.8 µM)	relative viability (SGI-1776; 2.53 µM)	relative viability (SGI-1776; 8 µM)
CAL-12T	0.937	1.05	0.972	1.02	0.788	1.04	1.05	1.2	0.982	0.691	1.06	1.14	0.913	0.996
NCI-H661	0.989	1.04	0.978	1	0.813	1	0.999	0.911	0.809	0.664	1.02	1.04	1.06	0.974
SK-MES-1	1.02	1.08	0.925	0.868	0.673	1.01	1.15	1.19	1.02	0.701	1.06	1.07	1	0.868
EBC-1	0.911	1.16	0.936	0.964	0.576	1.06	1.02	0.865	0.306	0.165	1.04	0.952	0.971	0.67
NCI-H1437	0.978	1	0.957	0.995	0.56	0.952	0.652	0.476	0.34	0.237	1.02	1.04	0.972	0.887
PC-14	0.974	1.14	1.03	0.852	0.525	1.08	1.11	1.06	0.424	0.14	1.09	1.03	0.972	0.491
LK-2	0.998	1.08	1.09	0.757	0.585	1.04	1.03	0.868	0.652	0.349	1.09	1.03	1.03	0.77
NCI-H1651	0.994	0.994	0.978	0.951	0.8	1.02	0.971	1.02	0.908	0.692	1	0.999	0.971	0.929
LC-2-ad	0.965	1.06	0.937	0.932	0.788	1.02	0.972	0.942	0.48	0.315	0.984	1.05	1.09	0.815
NCI-H1734	0.994	1.06	0.929	0.931	0.613	1.04	1.16	1.04	0.862	0.628	0.946	0.945	1.04	0.842
NCI-H441	1.1	1.14	1.08	0.888	0.443	1.01	1.18	0.882	0.35	0.218	0.913	1.12	1.15	0.817
NCI-H727	0.973	1.1	0.878	0.9	1.02	0.892	0.895	0.887	0.614	0.545	0.976	1.02	1.01	0.852
NCI-H23	0.937	0.843	0.869	0.854	0.654	1.06	1.27	1.15	0.9	0.395	0.921	1.01	1.06	0.887
NCI-H1395	0.846	0.935	0.724	0.801	0.821	1.1	1.15	0.962	0.745	0.601	1.04	1.04	0.827	0.621
NCI-H596	0.993	1.11	0.944	0.948	0.832	1.03	0.937	0.975	0.854	0.588	0.943	1.11	0.869	0.731
NCI-H460	1.05	1.09	0.974	1.03	0.477	1.02	0.986	0.842	0.307	0.0693	1.01	0.994	0.988	0.947
